In patent publication US6140364A, “Arachidonic acid metabolite, 16-HETE” (The University of Vermont and State Agricultural College, priority 1996, dated 2000):
Each block holds one molecule with its values, some of them ahead of it.

How the values were obtained:
neutrophil aggregation = assay: Neutrophil aggregation (inventors' finding, method not given at the place); assay type: cell-based
human neutrophils = assay: Agonist activity on human neutrophils; assay type: cell-based; conditions: ≤20 μM
[1] = tested on: neutrophil aggregation stimulated by fMLP; assay: fMLP-induced neutrophil aggregation in diluted whole human blood; assay type: cell-based; conditions: for inhibition at 1 µM: 10 min, 1 μM HETE, N = 3 to 4, read-out: Aggregation (percent of inhibition from HETE untreated cells); for inhibition of fMLP-induced neutrophil aggregation: ≤10 μM
Method: (§1) Neutrophil activity: Stimulated neutrophil aggregation and oxygen free radical release were examined in whole human blood using a whole-blood aggregometer-chemiluminometer (Chronolog, Haverton, Pa.) as described Bednar et al. J. Thromb. Thrombol. 1, 179-185 (1995). Blood samples containing heparin (1 U/ml) as the anticoagulant were diluted in HBSS in proportion 1 to 9. Diluted blood aliquots (1 ml) were stirred (400 rpm) in a prewarmed (37° C.) siliconized cuvette containing cytochalasin b (5 μg/ml) and luminol (in 8 μl DMSO, 500 μM final concentration) and the test HETE (concentration 0.01 to 10 μM) for 10 min. Neutrophils were stimulated with a submaximal dose of FMLP (5×10^-7 M final concentration). The aggregation and chemiluminescence were simultaneously measured as changes of impedance and luminescence respectively. The fMLP-induced chemiluminescence was calculated as the peak height of the reaction.

[2] = tested on: thrombin-stimulated human neutrophils (adhesion to a gelatin matrix); assay: Neutrophil adhesion to gelatin matrix, thrombin-stimulated; assay type: cell-based; conditions: for inhibition at 1 µM: Homo sapiens, Neutrophil, thrombin 1 U/ml, 3×10^6 cells/ml, 10 min preincubation
Method: (§2) Preparation of human polymorphonuclear leukocytes: Venous blood (60-70 ml) was collected from four healthy, normal volunteers into syringes containing heparin (1 U/ml). Polymorphonuclear leukocytes (PMNs) were isolated by a histopaque density gradient technique as previously described in Liu et al., Adhesion, Its role in Inflammatory Disease, Freeman and Co., New York, 1992, pp 189-192. Briefly, blood aliquots (6 ml) were layered over two layers (3 ml) of histopaque 1077 and 1119 in a conical centrifuge tube. The sample was then subjected to centrifugation at 100× g for 30 minutes at room temperature and the top layer, containing the neutrophils, was carefully collected. Hypotonic lysis was used to separate out the red blood cells. The neutrophils were then isolated from the sample by centrifugation (2000× g) and suspended in Hanks balanced salt solution (HBSS) containing 1 mM Ca^2+ and 0.8 mM Mg^2+ for studies involving arachidonic acid metabolism, and in M199 (with 1% BSA) for neutrophil adhesion assays. Total cells were counted using a hemocytometer and leukocytes were counted after staining with Wright-Giemsa stain. For each experiment, the cell preparations used contain ≥97% neutrophils, having ≥95% viability as determined by a trypan blue exclusion assay.
Neutrophil adhesion: Isolated neutrophils were resuspended in M199 containing 1% BSA with a final concentration of 3×10^6 cells per ml. Cells suspensions (1 ml) were incubated with or without a test compound, 16(S)-HETE, 16(R)-HETE, or 20-HETE (concentrations 1 nM to 10 μM) for 10 min and then placed into gelatin-coated wells and further incubated for 20 min at 37° C. The wells were washed three times with 0.5 ml of solution M199 to remove non-adherent cells. The adherent cells were then removed by addition of 0.4 ml of 0.25% trypsin-EDTA in 0.1 M PBS to the gelatin-coated wells and incubation for 10 min at 37° C. […] The amount of cells in combined solutions was counted. […] The inhibition of adhesion was expressed as percent of cells remaining in suspension (non-adherent) relative to control. […]

[3] = tested on: basal human neutrophils (adhesion to a gelatin matrix); assay: Neutrophil adhesion to gelatin matrix, basal (unstimulated); assay type: cell-based; conditions: for inhibition at 1 µM: Homo sapiens, Neutrophil, 10 min preincubation; for inhibition of neutrophil adhesion, basal: 20-HETE at ≤10 μM, 16-HETE isomers 10^-8 to 10^-5 M; for potency of neutrophil inhibition relative to the other stereoisomer: unstimulated and stimulated neutrophils
Method: as §2
Neutrophil adhesion: Isolated neutrophils were resuspended in M199 containing 1% BSA with a final concentration of 3×10^6 cells per ml. Cells suspensions (1 ml) were incubated with or without a test compound, 16(S)-HETE, 16(R)-HETE, or 20-HETE (concentrations 1 nM to 10 μM) for 10 min and then placed into gelatin-coated wells and further incubated for 20 min at 37° C. The wells were washed three times with 0.5 ml of solution M199 to remove non-adherent cells. The adherent cells were then removed by addition of 0.4 ml of 0.25% trypsin-EDTA in 0.1 M PBS to the gelatin-coated wells and incubation for 10 min at 37° C. The incubates were transferred and the wells were washed with 0.1 ml of M199 solution. The amount of cells in combined solutions was counted. In some experiments, the adhesion of neutrophils was stimulated by addition of 1 U/ml of thrombin to neutrophil suspension immediately prior to the transfer of cells to the wells. Experiments were performed in duplicates for each concentration of HETE. The inhibition of adhesion was expressed as percent of cells remaining in suspension (non-adherent) relative to control. The range of adherent PMNs in control incubations was 6 to 23%. This was increased two-fold in the presence of thrombin.

[4] = tested on: oxygen free radicals (OFR) release stimulated by fMLP; assay: fMLP-stimulated oxygen free radical (OFR) release, chemiluminescence, in diluted human blood; assay type: cell-based; conditions: 10 min, 1 μM HETE, fMLP 5×10^-7 M, N = 3 to 4, read-out: OFR Release (percent of inhibition from HETE untreated cells)
Method: as §1

[5] = tested on: platelet or other leukocyte; assay: Platelet or other leukocyte activity or function
[6] = tested on: formation of product A by human neutrophils; assay: Inhibition of arachidonic acid metabolism (formation of product A) in intact human neutrophils; assay type: cell-based; conditions: SKF 525A 100 μM, BW755C 94 μM, 10 min preincubation
Method: as §2, with “The neutrophils were then isolated from the sample by centrifugation (2000× g) and suspended in Hanks balanced salt solution (HBSS) containing 1 mM Ca^2+ and 0.8 mM Mg^2+ for studies involving arachidonic acid metabolism, and in M199 (with 1% BSA) for neutrophil adhesion assays.” left out, “assay. […]” for “assay.”
After ten minutes in arachidonic acid the reaction was terminated by the addition of cold methanol (four volumes). […] The effluent was passed through a UV detector (HP1050/ChemStation-Hewlett-Packard, Palo Alto, Calif.) and a radioactivity detector (Radiomatic, Meridian, Conn.) with a splitter (ratio 1:10) and collected in 1 ml fractions.

[7] = tested on: intact canine and human neutrophils; conditions: cited from earlier work
[8] = Neutrophil, fMLP 5×10^-7 M, diluted human blood

SMILES: CCCCC[C@H](O)/C=C/C=C\C/C=C\C/C=C\CCCC(=O)O [15-HETE]
inhibition of neutrophil aggregation (neutrophil aggregation): neither 20-HETE nor 15-HETE inhibited neutrophil aggregation

IC50 ([1]; Neutrophil, fMLP 5×10^-7 M, diluted human blood, read-out: IC50, inhibition of fMLP-induced neutrophil aggregation): 1.2 µM
SMILES: CCCC[C@@H](O)/C=C\C/C=C\C/C=C\C/C=C\CCCC(=O)O [16(R)-HETE, 16(R)-hydroxy-5,8,11,14-eicosatetraenoic acid]
agonist activity on human neutrophils (human neutrophils): no detectable agonist activity | inhibition at 1 µM [1, 8]: 42 ± 11% | inhibition at 1 µM [2]: 50 ± 4% | inhibition of neutrophil adhesion to gelatin ([3]; 10 μM, preincubation): completely inhibited | inhibition at 1 µM ([3]; gelatin matrix): 73 ± 11% | inhibition of neutrophil adhesion, basal [3]: inhibited neutrophil adhesion in a dose-dependent manner | preincubation time required to inhibit adhesion ([3]; gelatin matrix): 10 min | potency of neutrophil inhibition relative to the other stereoisomer [3]: more potent than the effect observed with the opposite stereoisomer | inhibition at 1 µM [4]: 8.9 ± 5.1%

SMILES: CCCC[C@H](O)/C=C\C/C=C\C/C=C\C/C=C\CCCC(=O)O [16(S)-HETE, S-stereoisomer of 16-hydroxyeicosatetraenoic acid]
agonist activity on human neutrophils (human neutrophils): no detectable agonist activity | inhibition at 1 µM [1, 8]: 7 ± 3.5% | inhibition of fMLP-induced neutrophil aggregation [1]: not active | inhibition at 1 µM [2]: 40 ± 14% | inhibition at 1 µM ([3]; gelatin matrix): 39 ± 8% | inhibition of neutrophil adhesion, basal [3]: inhibited neutrophil adhesion in a dose-dependent manner | potency of neutrophil inhibition relative to the other stereoisomer [3]: less potent | inhibition at 1 µM [4]: 5.6 ± 16.7%

SMILES: CCCCC(O)/C=C\C/C=C\C/C=C\C/C=C\CCCC(=O)O (stereo not shown) [16-HETE, 16-hydroxyeicosatetraenoic acid]
effect on platelet or other leukocyte activity or function [5]: does not affect platelet or other leukocyte activity or function

SMILES: O=C(O)CCC/C=C\C/C=C\C/C=C\C/C=C\CCCCCO [20-HETE, reference compound]
agonist activity on human neutrophils (human neutrophils): no detectable agonist activity | inhibition at 1 µM [1, 8]: 8.1 ± 2.6% | inhibition of fMLP-induced neutrophil aggregation [1]: not active | inhibition of neutrophil adhesion, thrombin-stimulated ([2]; thrombin-stimulated, 20-HETE at ≤10 μM, 16-HETE isomers 10^-8 to 10^-5 M): did not inhibit neutrophil adhesion | inhibition of neutrophil adhesion, basal [3]: did not inhibit neutrophil adhesion | inhibition at 1 µM [4]: 3.9 ± 13.4% | inhibition of neutrophil aggregation (neutrophil aggregation): neither 20-HETE nor 15-HETE inhibited neutrophil aggregation

SMILES: NC1=NN(c2cccc(C(F)(F)F)c2)CC1 [BW755C]
inhibition of formation of product A [6]: not with BW755C

SMILES: CCCC(C(=O)OCCN(CC)CC)(c1ccccc1)c1ccccc1 [SKF525A]
inhibition of formation of product A [6]: can be inhibited with SKF525A | inhibition of formation of polar arachidonic acid metabolites [7]: formation can be inhibited

SMILES: [C-]#[O+] [carbon monoxide]
inhibition of formation of polar arachidonic acid metabolites [7]: formation can be inhibited
